Values of other authors in patent publication US9034830B2, “Methods and compositions for sustained delivery of drugs” (INTRATUS, INC., priority 2009, dated 2015).

Test system: patients

## Brc1c(NC2=NCCN2)ccc2nccnc12 [Brimonidine]
0.2% eye drop, FDA clinical data
  more patients who had to discontinue due to lack of clinical effect: 30%
Eye drop, dosed at least two times a day
  drop in intraocular pressure: ~24%
Eye drop, per FDA data
  patients with side-effects (itching, redness, intolerance) necessitating stoppage of the drug: up to 20%
